# Measured values taken from patent US5912183A, “Peptide inhibitors of mitogenesis and motogenesis” (Pharmacia & Upjohn S.p.A., priority 1993, dated 1999).
# Residues, ends and D or L forms follow the SMILES beside them.
# Target: T1, binding of p85 to HGF/SF receptor (Bos taurus, UniProt P23727)
# T1 construct: made in house; host or cells: Sf9 insect cells (baculovirus), for both p85 and the receptor
# Experiment: Competition of phosphopeptides with p85 for association with immobilized recombinant HGF/SF receptor (in vitro kinase assay readout)
# Set-up: species or system human
# How it was run: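 Sf9 lysates expressing p85 were pre-incubated 1 h at 4°C with phosphopeptides (10 μM; also 10 nM, 100 nM, 1 μM), then bound to immunoprecipitated baculovirus-expressed receptor pre-phosphorylated with 10 μM cold ATP. Bound p85 was detected by in vitro kinase labelling with [γ-32P]ATP, 15 min at 25°C, and SDS-PAGE.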
# T1 sequence (P23727 whole entry): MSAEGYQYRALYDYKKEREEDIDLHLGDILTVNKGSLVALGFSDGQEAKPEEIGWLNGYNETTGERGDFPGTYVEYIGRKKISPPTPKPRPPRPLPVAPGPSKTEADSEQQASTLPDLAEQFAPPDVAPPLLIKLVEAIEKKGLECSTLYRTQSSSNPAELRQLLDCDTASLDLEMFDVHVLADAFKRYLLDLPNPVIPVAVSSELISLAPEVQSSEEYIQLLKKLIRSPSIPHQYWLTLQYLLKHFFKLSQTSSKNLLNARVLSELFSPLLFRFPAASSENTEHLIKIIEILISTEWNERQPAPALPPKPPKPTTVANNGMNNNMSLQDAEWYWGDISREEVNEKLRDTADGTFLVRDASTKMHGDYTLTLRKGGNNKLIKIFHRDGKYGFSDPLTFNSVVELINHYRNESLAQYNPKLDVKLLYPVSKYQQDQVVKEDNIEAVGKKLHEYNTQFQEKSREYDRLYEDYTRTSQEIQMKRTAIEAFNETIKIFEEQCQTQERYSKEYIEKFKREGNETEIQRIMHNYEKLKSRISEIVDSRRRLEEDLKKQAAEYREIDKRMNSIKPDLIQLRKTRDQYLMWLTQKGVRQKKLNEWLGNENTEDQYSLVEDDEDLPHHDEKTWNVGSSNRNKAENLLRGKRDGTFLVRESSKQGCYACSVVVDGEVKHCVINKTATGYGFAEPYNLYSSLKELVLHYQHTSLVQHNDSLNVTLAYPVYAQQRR
structure (smiles),measurement,setting,value
CSCC[C@H](NC(=O)[C@@H](NC(=O)[C@H](CCC(=O)O)NC(=O)[C@@H](N)Cc1ccc(OP(=O)(O)O)cc1)C(C)C)C(=O)N[C@@H](CC(C)C)C(=O)N[C@@H](CCCCN)C(=O)N[C@@H](CS)C(=O)N[C@@H](Cc1c[nH]c2ccccc12)C(=O)O [H-Tyr*-Glu-Val-Met-Leu-Lys-Cys-Trp-OH] (HELM PEPTIDE1{[N[C@@H](Cc1ccc(OP(=O)(O)O)cc1)C(=O)[*:2]].E.V.M.L.K.C.W}$$$$V2.0),Inhibition of binding of p85 to HGF/SF receptor,"phosphopeptide 10 μM, p85 from Sf9 lysates, FIG. 1",efficiently outcompeted p85
same,Efficiency at outcompeting p85 (relative affinity for p85),"phosphopeptides at 10 nM, 100 nM, 1 μM, FIG. 2, rank order SEQ. ID NO: 19, then 22, 20, 18",highest
